How the values were obtained:
DIO mice = test: Study 3 (Example 2): EREG injected into epididymal iAb fat of DIO mice; assay type: in vivo, mouse
Method: 6-week old C57BL6/J male mice (WT) were fed a high fat diet (HF, 45% kcal from fat, D12451, Research Diet Inc., New Brunswick, NJ) for 30 days. Then mice were randomly assigned for • 1) a control group injected with 0.1 mL sterile phosphate buffered saline (PBS) into both epididymal iAb fat (n=7), and • 2) EREG-treated group injected with 20 ng EREG per epididymal iAb fat depot (n=7). Mice were injected with 0.1 mL sterile PBS, containing 200 ng EREG/mL. Mice were individually housed and pair fed when injection started. Mice were injected every other day for 2 weeks. Metabolic measurements were performed as described in 2.5. WAT were collected for protein, mRNA, and histology. Metabolic parameters in study 2.3 and 2.4 were measured by indirect calorimetry (CLAMS, Columbus Instruments, Columbus, OH) at ambient temperature (22° C.) with 12 h light/dark cycles. Animals were fed the same HF diet and water provided ad libitum. Mice were placed individually and allowed to acclimatize in the chambers for 12 h, and O2 consumption, CO2 production, energy expenditure, and locomotor activity were measured for 24 h. Then temperature was changed to 4° C. for 6 h. […] NanoString's nCounter analysis system performed direct detection of target molecules from a single sample using color-coded molecular barcodes, giving a digital quantification of the number of target molecules. A custom panel containing Ereg, thermogenic genes, and PPARα-target genes was designed and used for simultaneous quantification of 37 genes including housekeeping genes. All data were normalized to 3 housekeeping genes Gapdh, Pgk1, and Tubb quantified in the same samples using nSolver Software. Total mRNA (100 ng in 5 μl) was hybridized overnight with nCounter Reporter (20 μl) probes in hybridization buffer and in an excess of nCounter Capture probes (5 μL) at 65° C. for 16-20 h. The hybridization mixture containing target/probe complexes was allowed to bind to magnetic beads containing complementary sequences on the Capture Probe. After each target found a probe pair, excess probes were washed followed by sequential binding to sequences on the Reporter Probe. Biotinylated capture probe-bound samples were immobilized and recovered on a streptavidin-coated cartridge. The abundance of specific target molecules was then quantified using the nCounter Digital Analyzer. Individual fluorescent barcodes and target molecules present in each sample were recorded with a CCD camera by performing a high-density scan (600 fields of view). Images were processed internally into a digital format and were normalized using the NanoString nSolver software analysis tool. Counts were normalized for all target RNAs in all samples based on the positive control RNA to account for differences in hybridization efficiency and post-hybridization processing, purification, and immobilization of complexes. The average was normalized by background counts (the average of the eight negative control counts) for each sample. Subsequently, a normalization of mRNA content was performed based on Gapdh, Pgk1, and Tubb internal reference housekeeping genes. Plasma FFA and TG were measured in plasma samples from study 3, using kits from Wako Diagnostics (Mountain View, CA). Plasma samples were collected from mice in Study 3 and analyzed using a mouse leptin ELISA Kit (Alpco, Salem, NH) according to manufacturer's instruction. The absorbance (450 nm) was measured using Synergy H1 Hybrid Multi-Mode Microplate Reader. Insulin levels were measured in plasma from mice in Study 4 using an ultra-sensitive mouse insulin ELISA kit (Crystal Chem, Downers Grove, IL) according to manufacturer's instruction.

ob/ob mice = test: Study 4 (Example 2): EREG injected into epididymal iAb fat of ob/ob mice; assay type: in vivo, mouse
Method: 6-week old Ob/Ob male mice, purchased from the Jackson laboratory (n=10), were fed a high fat diet (HF, 45% kcal from fat, D12451, Research Diet Inc., New Brunswick, NJ) for 30 days and then randomly assigned into two groups: • 1) a control group injected with 0.1 mL sterile PBS into both epididymal iAb fat (n=5), and • 2) EREG-treated group injected with 60 ng EREG per epididymal iAb fat depot (n=5). Mice were injected with 0.1 mL sterile PBS, containing 600 ng EREG/mL. These mice were pair fed and individually housed during injections. […] Metabolic measurements were performed as described in 2.5. WAT were collected for protein, mRNA, and histology. Metabolic parameters in study 2.3 and 2.4 were measured by indirect calorimetry (CLAMS, Columbus Instruments, Columbus, OH) at ambient temperature (22° C.) with 12 h light/dark cycles. Animals were fed the same HF diet and water provided ad libitum. Mice were placed individually and allowed to acclimatize in the chambers for 12 h, and O2 consumption, CO2 production, energy expenditure, and locomotor activity were measured for 24 h. Then temperature was changed to 4° C. for 6 h. […] GTT was performed in overnight fasted Ob/Ob mice (study 4, N=5 per group) by intraperitoneal injection of 0.004 mL 25% glucose/g body weight. One week after GTT, an ITT test was performed in same overnight fasted mice. They were injected with a single intraperitoneal insulin dose (1 mU of insulin/g body weight). Blood glucose was measured from mouse tails by One Touch Ultra glucometer (LifeScan, Wayne, PA).

[1] = system: human brain endothelial cells (hBEC); test: FD-glucose uptake in human brain endothelial cells (hBEC); assay type: cell-based; conditions: hINS 1.7 μM, AAC2 0.1 μM, 50 min; FIG. 42B
Method: FD-glucose uptake in human brain endothelial cells (hBEC, n=8 per treatment) treated with vehicle (Veh; PBS, open bar) or hINS (1.7 μM), human leptin (hLep; 62.5 nM, hatched bar), or AAC2 (0.1 μM black bar) in the presence and absence of GLUT1 inhibitor (BAY-876; 10 nM in DMSO). Cells were pre-treated with or without BAY-876 for 40 min and then FD glucose and treatment reagents were added for additional 50 min of incubation. Data (%) was normalized to FD-glucose uptake in control (Veh) hBEC without inhibitor (100%).

With “EREG: Epiregulin, member of the epidermal growth factor family; recombinant mouse or human protein” the “metabolic rate at ambient temperature and after cold exposure” value (DIO mice; CLAMS) was “increase”, the “body temperature in the abdominal area” value (DIO mice; EREG 20 ng per depot every other day, 2 weeks, infrared camera) was “profound effects” and the weight gain (DIO mice; HF diet) was “prevented”. The “expression of PPARα target genes Mcat and Cpt2 in iAb fat” value (DIO mice; NanoString) was “increased”, the “expression of pro-inflammatory genes Tnfa and Mcp1 in iAb fat” value (DIO mice; NanoString) was “suppressed” and the “expression of thermogenic genes (Dio2, Pgc1a, Cidea, Rip140) and CoxIV in iAb fat” value (DIO mice; NanoString) was “significantly increased”. The “light and dark period activity” value (DIO mice; before and after cold exposure) was “did not influence”, the “Lep expression in iAb fat” value (DIO mice; between groups) was “similar” and the “levels of BAT marker Prdm16 in iAb fat” value (DIO mice; between groups) was “similar”. For the same substance, the food consumption (DIO mice; both groups) was “similar”, the “decrease of circulating triglyceride levels” value (DIO mice; compared to control group) was 48% and the “increase in Ucp1 and Pparg expression in iAb fat” value (DIO mice; mouse, in vivo) was “did not reach statistical significance”. For the same substance, the “less iAb fat than non-treated mice” value (DIO mice; mouse, in vivo) was 32%, the “liver, BAT and subcutaneous WAT weight” value (DIO mice; normalized to body weight) was “did not influence” and the “levels of secreted LEP, higher than in non-treated mice” value (DIO mice; plasma, ELISA) was 215%. The RER (DIO mice; treated vs non-treated) was “similar”, the “increase in non-esterified fatty acid in the circulation” value (DIO mice; vs control group) was 580% and the “time to maximal metabolic rate plateau during cold exposure” value (DIO mice; vs control group) was “significantly shorter”. For the same substance, the “RER during the light cycle” value (ob/ob mice; EREG-treated vs control) was “significantly lower”, the “activity after transition from ambient temperature to the cold” value (ob/ob mice; EREG-treated vs control) was “higher” and the weight gain (ob/ob mice; after 6 weeks of treatment with EREG) was “reduced”. The “expression of PPARα target genes and mitochondrial genes in iAb fat” value (ob/ob mice; between groups) was “similar”, the “metabolic rate before and during cold exposure” value (ob/ob mice; between groups) was “identical” and the “response to insulin (ITT)” value (ob/ob mice; between groups) was “similar”. The “glucose tolerance (GTT)” value (ob/ob mice; compared to non-treated group) was “markedly improved”, the “weight of BAT, WAT depot and liver” value (ob/ob mice; mouse, in vivo) was “not associated with significant changes” and the food intake (ob/ob mice; pair-fed HF diet) was “identical”.

insulin: insulin (bovine or human) was tested, and the “glucose uptake in human blood-brain barrier endothelial cells” value [1] was “not”.

From patent publication US12697366B2, “Thermogenic compositions and methods” (Ohio State Innovation Foundation, priority 2016, dated 2026)
